Results taken from US5593970A, “Heterocyclic anthracycline analogs” (priority 1994, dated 1997).
Where “and” joins values, the source holds several entries; their conditions need not be identical. Equal entries are not always repeated. Structures can show the parent of a compound that is named as a salt. Where two headings read alike, the source gives them in different places.

Tests used:
Experiment in all cases: Microculture tetrazolium assay
Type in all cases: cell-based
[1] = test system: SKVLB; details: for VLB/OV3: IC50 ratio SKVLB/SKOV3; for IC50: SKVLB
[2] = test system: T47D
[3] = test system: HT29
[4] = test system: SKOV3
[5] = test system: LOX
[6] = Homo sapiens, HT-29, HT29, read-out: IC50
[7] = Homo sapiens, SK-OV-3, SKOV3, read-out: IC50

Structure (SMILES) | VLB/OV3 [1] | IC50 ([1]; read-out: IC50) | IC50 ([2]; Homo sapiens, read-out: IC50) [nM] | IC50 [3, 6] [nM] | IC50 [4, 7] [nM] | IC50 ([5]; read-out: IC50) | also measured
CC(=O)CC1CC2=C(C(=O)c3cc4ccccc4c(O)c3C2=O)C(O[C@H]2C[C@H](N)[C@H](O)[C@H](C)O2)O1 (mixture of isomers) [BCH-2111, (1'S,1R,3S) and (1'S,1S,3R)-3-6-hydroxy-1-(2',3',6'-trideoxy-3'-amino-4'-hydroxy-L-lyxohexopyranose-5,12-dioxo-3,4,5,12-tetrahydroanthraceno[2,3-c]pyran-3-yl)propanone hydrochloride] | 5.51 | 11800 nM | 2420 | 954 | 2140 | – | –
CC(=O)[C@@H]1CC2=C(C(=O)c3cc4ccccc4c(O)c3C2=O)[C@@H](O[C@H]2C[C@H](NC(=O)C(F)(F)F)[C@H](O)[C@H](C)O2)O1 [BCH-730, (1S',1R,3S)-Methyl-(6-hydroxy-1-(3'-trifluoroacyldaunosamine)-5,12-dioxo-3,4,5,12-tetrahydroanthraceno[2,3-C]pyran-3-yl) ketone] | – | 2010 nM and 2880 nM | 3620 | – | 3520 | 1660 nM | IC50 [5]: 1780 nM; IC50 ([2]; read-out: IC50): 3080 nM
CC(=O)[C@@H]1CC2=C(C(=O)c3cc4ccccc4c(O)c3C2=O)[C@@H](O[C@H]2C[C@H](N)[C@H](O)[C@H](C)O2)O1 [BCH-1128] | 1.60 and 1.83 | 1400 nM and 2200 nM | 1310 | – | 874 | 850 nM and 493 nM | IC50 ([2]; read-out: IC50): 1910 nM; IC50 ([4]; SKOV3, read-out: IC50): 1200 nM
CC(=O)C1Cc2c(O)c3c(c(O)c2C(O[C@H]2C[C@H](N4CCOCC4)[C@H](O)[C@H](C)O2)O1)C(=O)c1ccccc1C3=O (stereo partly drawn) [BCH-1193] | 2.46 | – | – | – | – | – | IC50 [1]: 4790 nM and 4920 nM; IC50 [2]: 2570 nM and 4160 nM; IC50 ([3]; HT29): 1040 nM and 940 nM; IC50 ([4]; SKOV3): 1950 nM
CC(=O)[C@@H]1Cc2c(O)c3c(c(O)c2[C@@H](O[C@H]2C[C@H](N)[C@H](O)[C@H](C)O2)O1)C(=O)c1ccccc1C3=O [BCH-1194, (1'S,1R,3S)-Methyl-[5,12-dihydroxy-1-(2',3',6'-trideoxy-3'-amino-4'-hydroxy-L-lyxohexopyranose)-6,11-dioxo-3,4,6,11-tetrahydroanthraceno-(2,3-C)pyran-3-yl]ketone hydrochloride] | 260.71 | 1460 nM | 43.9 | – | 5.6 | 62.3 nM | –
CC(=O)[C@H]1Cc2c(O)c3c(c(O)c2[C@H](O[C@H]2C[C@H](N)[C@H](O)[C@H](C)O2)O1)C(=O)c1ccccc1C3=O [BCH-1195, (1'S,1S,3R)-Methyl-[5,12-dihydroxy-1-(2',3',6'-trideoxy-3'-amino-4'-hydroxy-L-lyxohexopyranose)-6,11,dioxo-3,4,6,11-tetrahydroanthraceno-(2,3-C)pyran-3-yl]ketone hydrochloride] | 4.99 | 3350 nM | 1410 | – | 672 | 741 nM | –
CC[C@@H]1CC2=C(C(=O)c3cc4ccccc4c(O)c3C2=O)[C@@H](O[C@H]2C[C@H](NC(=O)C(F)(F)F)[C@H](O)[C@H](C)O2)O1 [BCH-1606, (1'S,1R,3R)-5,12-dioxo-3-ethyl-6-hydroxy-1-(2',3',6'-trideoxy-3'-trifluoroacetamido-4'-hydroxy-L-lyxohexopyranose)-3,4,5,12-tetrahydroanthraceno[2,3-c]pyran] | 2.88 | 3260 nM | 1330 | – | 1130 | 891 nM | –
CC[C@H]1CC2=C(C(=O)c3cc4ccccc4c(O)c3C2=O)[C@H](O[C@H]2C[C@H](N)[C@H](O)[C@H](C)O2)O1 [BCH-1610, (1'S,1S,3S)-5,12-dioxo-3-ethyl-6-hydroxy-1-(2',3',6'-trideoxy-3'-amino-4'-hydroxy-L-lyxohexopyranose)-3,4,5,12-tetrahydroanthraceno[2,3-c]pyran hydrochloride] | 3.30 | – | – | – | – | – | IC50 [1]: 2770 nM; IC50 [5]: 845 nM; IC50 ([2]; Homo sapiens): 1360 nM; IC50 ([4]; Homo sapiens, SK-OV-3, SKOV3): 839 nM
CC(=O)[C@@H]1Cc2c(O)c3c(c(O)c2[C@@H](O[C@@H]2O[C@@H](C)[C@@H](O)[C@@H](O)C2I)O1)C(=O)c1ccccc1C3=O (stereo partly drawn) [BCH-1672] | 2.89 | 990 nM | – | 1670 | 343 | 232 nM | –
C[C@@H]1O[C@@H](O[C@H]2O[C@H](C(C)(F)F)CC3=C2C(=O)c2cc4ccccc4c(O)c2C3=O)C[C@H](NC(=O)C(F)(F)F)[C@@H]1O [BCH-1676, (1'S,1R,3S)-5,12-dioxo-3-(1,1-difluoroethyl)-6-hydroxy-1-(2',3',6'-trideoxy-3'-trifluoroacetamido-L-lyxohexopyranose)-3,4,5,12-tetrahydroanthraceno-[2,3-c]-pyran] | 1.63 | 4010 nM | – | 3050 | 2460 | 2310 nM | –
COP(=O)(CC(=O)[C@@H]1CC2=C(C(=O)c3cc4ccccc4c(O)c3C2=O)[C@@H](O[C@H]2C[C@H](NC(=O)C(F)(F)F)[C@H](O)[C@H](C)O2)O1)OC [BCH-1678] | 2.54 | – | – | – | – | – | IC50 [1]: 13600 nM; IC50 [5]: 3770 nM; IC50 ([3]; Homo sapiens, HT-29, HT29): 5650 nM; IC50 ([4]; Homo sapiens, SK-OV-3, SKOV3): 5360 nM
COP(=O)(CC(=O)[C@H]1CC2=C(C(=O)c3cc4ccccc4c(O)c3C2=O)[C@H](O[C@H]2C[C@H](NC(=O)C(F)(F)F)[C@H](O)[C@H](C)O2)O1)OC [BCH-1679] | – | – | – | – | – | – | IC50 [1]: 3600 nM; IC50 [5]: 1100 nM; IC50 ([3]; Homo sapiens, HT-29, HT29): 1100 nM; IC50 ([4]; Homo sapiens, SK-OV-3, SKOV3): 1200 nM
CC(=O)[C@H]1CC2=C(C(=O)c3cc4ccccc4c(O)c3C2=O)[C@H](O[C@@H]2O[C@@H](C)[C@@H](O)[C@@H](O)C2I)O1 (stereo partly drawn) [BCH-1681] | 0.73 | 671 nM | – | 123 | 914 | 454 nM | –
CC(NC(=O)C(F)(F)F)C1Cc2c(O)c3c(c(O)c2C(O[C@H]2C[C@H](O)[C@H](O)[C@H](C)O2)O1)C(=O)c1ccccc1C3=O (stereo partly drawn) [BCH-1682] | – | > 100000 nM | – | 25800 | 24700 | 16400 nM | –
CC(N)C1Cc2c(O)c3c(c(O)c2C(O[C@H]2C[C@H](O)[C@H](O)[C@H](C)O2)O1)C(=O)c1ccccc1C3=O (stereo partly drawn) [BCH-1683, (1'S ,1S,3R)-3(aminoethyl)-5,12-dihydroxyl-1(2,3,6-trideoxy-3,4-dihydroxy-L-lyxohexopyranose)-6,11-dioxo-3,4,6,11-tetrahydro-1H-anthra[2,3-c]pyran hydrochloride] | 3.71 | 11400 nM | – | 1350 | 3070 | 2290 nM | –
CC(=O)[C@@H]1Cc2c(O)c3c(c(O)c2[C@@H](O[C@H]2O[C@H](CO)[C@@H](O)[C@H](O)[C@H]2N)O1)C(=O)c1ccccc1C3=O [BCH-1685, (1'R, 1R,3S)-3-aceto-5,12-dihydroxy-1(2-deoxy-2-amino-D-glucopyranose)-6,11-dioxo-3,4,6,11-tetrahydro-1H-anthra-[2,3-c]pyran] | 65.68 | 53200 nM | – | 1930 | 810 | 683 nM | –
C=CC[C@H]1CC2=C(C(=O)c3cc4ccccc4c(O)c3C2=O)[C@H](O[C@H]2C[C@H](NC(=O)C(F)(F)F)[C@H](O)[C@H](C)O2)O1 [BCH-1686, (1'S,1S,3S)-3-(6-hydroxy-1-(2',3',6'-trideoxy-3'-trifluoroacetamido-4'-hydroxy-L-lyxohexopyranose)-5,12-dioxo-3,4,5,12-tetrahydroanthraceno-[2,3-C]pyran-3-yl)propene] | 2.60 | 2530 nM | – | 1840 | 972 | 684 nM | –
C=CC[C@@H]1CC2=C(C(=O)c3cc4ccccc4c(O)c3C2=O)[C@@H](O[C@H]2C[C@H](NC(=O)C(F)(F)F)[C@H](O)[C@H](C)O2)O1 [BCH-1687, (1S,1R,3R)-3-(6-hydroxy-1-(2',3',6'-trideoxy-3'-trifluoroacetamido-4'-hydroxy-L-lyxohexopyranose)-5,12-dioxo-3,4,5,12-tetrahydroanthraceno-[2,3-c]pyran-3-yl)propene] | 2.35 | 1860 nM | – | 1240 | 791 | 706 nM | –
C=CC[C@@H]1CC2=C(C(=O)c3cc4ccccc4c(O)c3C2=O)[C@@H](O[C@H]2C[C@H](N)[C@H](O)[C@H](C)O2)O1 [BCH-2005, (1'S,1R,3R)-3-(6-hydroxy-1-(2',3',6'-trideoxy-3'-amino-4'-hydroxy-L-lyxohexopyranose)-5,12-dioxo-3,4,5,12-tetrahydroanthraceno-[2,3-c]pyran-3-yl)propene hydrochloride] | 1.07 | 364 nM | – | 245 | 341 | 138 nM | –
C=CC[C@@H]1Cc2c(O)c3c(c(O)c2[C@@H](O[C@H]2C[C@H](NC(=O)C(F)(F)F)[C@H](O)[C@H](C)O2)O1)C(=O)c1ccccc1C3=O [BCH-2108, (1'S,1R,3R)-3-(5,12-dihydroxy-1-(2',3',6'-trideoxy-3'-trifluoroacetamido-4'-hydroxy-L-lyxohexopyranose)-6,11-dioxo-3,4,5,12-tetrahydroanthraceno-[2,3-c]pyran-3-yl)propene] | 1.25 | 14300 nM | 11900 | 8520 | 11400 | – | –
C=CC[C@H]1Cc2c(O)c3c(c(O)c2[C@H](O[C@H]2C[C@H](NC(=O)NCCCl)[C@H](O)[C@H](C)O2)O1)C(=O)c1ccccc1C3=O [BCH-2110] | 1.14 | – | – | – | – | – | IC50 [1]: 2830 nM; IC50 ([2]; Homo sapiens): 2460 nM; IC50 ([3]; Homo sapiens, HT-29, HT29): 1510 nM; IC50 ([4]; Homo sapiens, SK-OV-3, SKOV3): 2480 nM
CC(=O)C1Cc2c(O)c3c(c(O)c2C(OC2CCC(NC(=O)N(CCCl)N=O)CC2)O1)C(=O)c1ccccc1C3=O [BCH-2116, (1R,3S) and (1S ,3R)-3-aceto-6,11-dioxo-5,12-dihydroxy-1(4-chloroethylnitrosoureido-cyclohexyl-oxy)-3,4,6,11-tetrahydro-1H-anthra[2,3-C]pyran] | 2.68 | – | – | – | – | – | IC50 [1]: 50100 nM; IC50 ([2]; Homo sapiens): 22700 nM; IC50 ([3]; Homo sapiens, HT-29, HT29): 23300 nM; IC50 ([4]; Homo sapiens, SK-OV-3, SKOV3): 18700 nM
